From PMC9405216, “Antimicrobial and Cytotoxic Cyathane-Xylosides from Cultures of the Basidiomycete Dentipellis fragilis” (Antibiotics, 2022) come the findings set out here.

Format in all cases: cell-based
Assay [1] has as its system L929 (ACC2) mouse fibroblasts. Put plainly: MTT cytotoxicity test, L929. As to conditions: 120 h, five days incubation, n.c. = no cytotoxicity, read-out: IC50. The text has this:
(§1) A panel of mammalian cell lines was used to determine the cytotoxicity of the compounds following a previously published protocol. The assay was initially performed using the sensitive cell lines KB3.1 (human endocervical adenocarcinoma) and L929 (mouse fibroblasts). Active compounds were further tested using the cell lines MCF-7 (human breast adenocarcinoma), PC-3 (human prostate adenocarcinoma), SKOV-3 (ovarian carcinoma), A549 (human lung carcinoma), and A431 (human squamous cell carcinomas) (Table 6). The cell lines A549, KB 3.1, and L929 were cultured in DMEM (Gibco, provided by Thermo Fisher Scientific), PC-3 in F12-K (Gibco) and MC-7, and SKOV-3 and A431 in RPMI (Gibco). With the exception of A549, all cell lines were supplemented with 10% bovine serum (Gibco). All cell lines were cultured at 37 °C. The L929 and KB 3.1 cell lines were cultivated under an atmosphere of 10% (v/v) carbon dioxide. Cytotoxicity tests were then carried out using MTT (3-(4,5-dimethylthiazol-2-yl)-2,5-diphenyltetrazolium bromide) in 96-well microtiter plates. Serial dilutions of the compounds (60 µL aliquots, each with an initial concentration of 1 mg/mL) were added into 120 µL aliquots of cell suspension (50000 cells/mL) in the 96-well plates. These were incubated for five days, after which an MTT assay was performed. The absorbance was taken at 590 nm using an Elisa plate reader (Victor, Überlingen, Germany). The half-maximal inhibitory concentration (IC50), the concentration at which cell growth inhibition was 50% of the control, was calculated as described elsewhere.

Assay [2] concerns PC-3 (ACC465) human prostate adenocarcinoma. Put plainly: MTT cytotoxicity test, PC-3. The following applies: 120 h, PC-3 human prostate adenocarcinoma, five days incubation.
Source text: as §1

The test system of assay [3] is Actinobacter baumannii (DSM 30008). Put plainly: Serial dilution MIC assay, Actinobacter baumannii. The following applies: serial dilution 67-0.5 µg/mL, overnight incubation, n.i. = no inhibition. The method, then:
(§2) Serial dilution assays in 96-well microtiter plates were performed according to our standard protocol in order to determine the minimum inhibitory concentrations (MICs) of pure isolated compounds against different microorganisms. Essentially, aliquots of compounds 1–5 and 9 (20 µL), each with an initial concentration of 1 mg/mL, were diluted in MeOH together with the respective microorganisms to concentrations ranging between 67 µg/mL and 0.5 µg/mL in the 96-well plates, followed by overnight incubation. The MIC was then determined as the lowest concentration at which no growth of the test organism was observed. A broad spectrum of clinically approved test pathogens and sensitivity indicator strains were used in the assays (Table 4 and Table 5). Ciprofloxacin, oxytetracycline, kanamycin, and gentamycin were used as positive controls against bacterial pathogens, while nystatin was used as the positive control against fungi.

Assay [4] has as its system SKOV-3 (ovarian carcinoma). Put plainly: MTT cytotoxicity test, SKOV-3. The following applies: Homo sapiens, SK-OV-3, 120 h, five days incubation.
Source text: as §1

The test system of assay [5] is Escherichia coli (DSM 1116). Put plainly: Serial dilution MIC assay, Escherichia coli. As to conditions: overnight incubation, n.i. = no inhibition. The method, then:
as §2

Assay [6] has as its system Rhodotorula glutinis (DSM 10134). Put plainly: Serial dilution MIC assay, Rhodotorula glutinis. As to conditions: DSM10134, serial dilution 67-0.5 µg/mL, overnight incubation, n.i. = no inhibition, read-out: MIC. As for the experimental part: as §2
Assay [7] concerns Mucor hiemalis (DSM 2656). The experiment in a line: Serial dilution MIC assay, Mucor hiemalis. The following applies: DSM2656, serial dilution 67-0.5 µg/mL, overnight incubation, n.i. = no inhibition, read-out: MIC. The method, then:
as §2

The subject of assay [8] is A549 (ACC107) human lung carcinoma. Put plainly: MTT cytotoxicity test, A549. As to conditions: Homo sapiens, 120 h, five days incubation.
Source text: as §1

The subject of assay [9] is Schizosaccharomyces pombe (DSM 70572). The experiment in a line: Serial dilution MIC assay, Schizosaccharomyces pombe. As to conditions: DSM70572, serial dilution 67-0.5 µg/mL, overnight incubation, n.i. = no inhibition, read-out: MIC. As for the experimental part: as §2
Assay [10] relates to MCF-7 (A115) human breast adenocarcinoma. Put plainly: MTT cytotoxicity test, MCF-7. As to conditions: MCF7, 120 h, MCF-7 human breast adenocarcinoma, five days incubation.
Source text: as §1
On the technique in general: Tetrazolium dyes change colour on reduction, which living cells bring about.

For assay [11], the system named is KB3.1 (ACC158) human endocervical adenocarcinoma. Put plainly: MTT cytotoxicity test, KB3.1. The following applies: KB 3-1, 120 h, KB3.1 human endocervical adenocarcinoma, five days incubation, n.c. = no cytotoxicity, read-out: IC50.
Source text: as §1

In assay [12] the test system is Chromobacterium violaceum (DSM 30191). The experiment in a line: Serial dilution MIC assay, Chromobacterium violaceum. The following applies: overnight incubation, n.i. = no inhibition. The method, then:
as §2

The subject of assay [13] is Mycolicibacterium smegmatis (ATCC 700084). Put plainly: Serial dilution MIC assay, Mycolicibacterium smegmatis. The following applies: ATCC700084, serial dilution 67-0.5 µg/mL, overnight incubation, n.i. = no inhibition, read-out: MIC. The method, then: as §2
Assay [14] has as its system Bacillus subtilis (DSM 10). The experiment in a line: Serial dilution MIC assay, Bacillus subtilis. As to conditions: DSM10, serial dilution 67-0.5 µg/mL, overnight incubation, n.i. = no inhibition, read-out: MIC. The method, then: as §2
For assay [15], the system named is Pseudomonas aeruginosa (DSM PA14). The experiment in a line: Serial dilution MIC assay, Pseudomonas aeruginosa. The following applies: serial dilution 67-0.5 µg/mL, overnight incubation, n.i. = no inhibition. As for the experimental part:
as §2

Assay [16] has as its system Candida albicans (DSM 1665). The experiment in a line: Serial dilution MIC assay, Candida albicans. The following applies: overnight incubation, n.i. = no inhibition. As for the experimental part: as §2
Assay [17] relates to Pichia anomala (DSM 6766). Put plainly: Serial dilution MIC assay, Pichia anomala. The following applies: Hansenula anomala, DSM6766, serial dilution 67-0.5 µg/mL, overnight incubation, n.i. = no inhibition, read-out: MIC. The method, then: as §2
Assay [18] has as its system other cell lines (MCF-7, A549, PC-3, SKOV-3, A431). Put plainly: MTT cytotoxicity test, other cell lines of the panel. As to conditions: range over the cell lines other than L929 and KB3.1 (Table 6).
Source text: as §1, with “These were incubated for five days, after which an MTT assay was performed.” left out, “The half-maximal inhibitory concentration (IC50), the concentration at which cell growth inhibition was 50% of the control, was calculated as described elsewhere.” left out

The subject of assay [19] is A431 (ACC91) human squamous cell carcinomas. The experiment in a line: MTT cytotoxicity test, A431. The following applies: A-431, 120 h, five days incubation.
Source text: as §1

The subject of assay [20] is Staphylococcus aureus (DSM 346). The experiment in a line: Serial dilution MIC assay, Staphylococcus aureus. The following applies: DSM346, serial dilution 67-0.5 µg/mL, overnight incubation, n.i. = no inhibition, read-out: MIC. As for the experimental part:
as §2

Assay [21] concerns tested microorganisms (bacteria and fungi). The experiment in a line: Serial dilution MIC assays, whole panel of tested strains. As to conditions: range over most tested bacterial and fungal strains; read-out: minimum inhibitory concentrations (MICs) against most tested strains. As for the experimental part: as §2

Each structure is given as a SMILES string. ≈ marks a conversion by molar mass, not a printed value. Read-outs that look alike come from different tables or passages of the source.

As usually defined, the IC50 is the concentration at which inhibition is half-maximal. With `CC(C)C1=C2C3CC=C4C5OC6C(O)(COC7OC(C4C76O)C3(C)CCC2(C)CC1)O5` (centres unmarked) [Compound 1, dentifragilin A], the IC50 in assay [1] was determined as 5800 nM; in [2], 2300 nM; in [4], 1900 nM; in [8], 2800 nM; in assay [10] it was 700 nM; in [11], 2200 nM. Besides, the results for the IC50 in [18] and in assay [19] were 700 to 15800 nM and 15800 nM, respectively. The MIC result is “n.i” in assay [3]; “n.i” in [5] (serial dilution 67-0.5 µg/mL); 16.7 µg/mL (≈ 38.8 µM) in assay [6]; 16.7 µg/mL (≈ 38.8 µM) in [7]; 33.3 µg/mL (≈ 77.3 µM) in assay [9]; “n.i” in assay [12] (serial dilution 67-0.5 µg/mL). For the same compound, the MIC in [13] was 66.6 µg/mL (≈ 155 µM); in assay [14], 1 µg/mL (≈ 2.32 µM); in [15] it was “n.i”; in [16] (serial dilution 67-0.5 µg/mL), “n.i”; in assay [17] it was 66.6 µg/mL (≈ 155 µM); in [20], 4.2 µg/mL (≈ 9.76 µM).
On to `CC(C)C1=C2[C@H]3CC=C(C=O)[C@@H]4[C@H](O[C@@H]5OC[C@@H](O)C(=O)[C@@]54O)[C@]3(C)CC[C@@]2(C)CC1` [Compound 9, striatal D], for which the IC50 came out at 800 nM in assay [1]; 400 nM in assay [2]; 100 nM in assay [4]; 100 nM in assay [8]; 100 nM in [10]; 400 nM in [11]. For the same compound, the IC50 in assay [18] is 100 to 1000 nM; in assay [19], 1000 nM. For the same compound, the MIC in assay [3] (read-out: MIC) was 66.6 µg/mL (≈ 155 µM); in assay [5] (DSM1116, serial dilution 67-0.5 µg/mL, read-out: MIC), 66.6 µg/mL (≈ 155 µM); in [6] it was 1 µg/mL (≈ 2.32 µM); in [21], 1 to 66.6 µg/mL (≈ 2.32 to 155 µM); in assay [7], 2.1 µg/mL (≈ 4.88 µM); in assay [9], 4.2 µg/mL (≈ 9.76 µM). Besides, the MIC is 16.6 µg/mL (≈ 38.6 µM) in assay [12] (DSM30191, serial dilution 67-0.5 µg/mL, read-out: MIC); 33.3 µg/mL (≈ 77.3 µM) in assay [13]; 1 µg/mL (≈ 2.32 µM) in assay [14]; “n.i” in assay [15]; 33.3 µg/mL (≈ 77.3 µM) in assay [16] (DSM1665, serial dilution 67-0.5 µg/mL, read-out: MIC); 33.3 µg/mL (≈ 77.3 µM) in assay [17]. In addition, in assay [20], the MIC was determined as 2.1 µg/mL (≈ 4.88 µM).
